# Data reported in patent publication US10336784B2, “Methods for modular synthesis of N-glycans and arrays thereof” (Academia Sinica, priority 2016, dated 2019).
# “Also recorded” adds a separate entry of the source.
# How the values were obtained:
# [1] = tested on: PG16; assay: Glycan microarray on NHS-coated glass slide, binding of PG16; parameters: species or system human; settings: NHS-activated glass slide, glycans printed at 100 μM
# Procedure: To gain insights into the glycan specificities of these antibodies, the inventors used our newly developed array to profile the ligands of HIV-1 bNAbs. The synthetic N-glycan ligands were printed on NHS-activated glass slides through amide bond formation with 100 μM each of glycans 1-33 (FIG. 198). Each sample was printed with five replicates and slide images were obtained from a fluorescence scan after incubation with DyLight649-conjugated donkey anti-Human IgG antibody. […] Furthermore, PG9 and PGTs 141-145 were not detected to bind any of the glycans on the NHS array, probably due to their extremely weak binding. (FIGS. 203, 204A, 204B, 204C, 205A, 205B and 206).
# a) Fabrication of N-hydroxy succinimide-coated glass slide: All monovalent glycans (G1-33) were prepared in 10 mM concentration individually and served as mother solutions which are to be diluted with printing buffer to prepare a working solution. […]
# (§1) The slide was scanned at 635 nm with a microarray fluorescence chip reader (GenePix® 4300A, Molecular Devices Corporation). Scanned images were analyzed with GenePix Pro 6.0 analysis software (Molecular Devices Corporation,). […] The intensities was calculated and averaged. […]
# [2] = tested on: PGTs 141-144; assay: Glycan array on ACG slide, binding of PGTs 141-144; parameters: species or system human; settings: panel of glycans I-XI
# Procedure: To understand the exact glycan epitopes recognized by antibodies PGTs 141-145^20, a panel of glycans I-XI on the ACG slide was prepared for analysis.
# b) Fabrication of aluminum oxide coated glass slide. The aluminum oxide glass substrate provides advantages for being able to be assessed by both mass spectrometry and fluorescence scanning. […] There are many reports describing the surface of micron to nano pore structures of anodized aluminum oxide. However, only a few articles have mentioned the initial planar layer of aluminum oxide16 during the treatment of surface anodization. In the development of AAO glass substrate, a computer experimental design program (Design Expert 8.0) has been used to optimize the planar layer of surface anodized aluminum oxide to be best used in glycan microarray 17.
# Antibodies PG9, PG16 and PGTs 141-145 were diluted by binding buffer to 100 μg/mL prior to use. DyLight649-conjugated Donkey Anti-Human IgG antibody was then pre-complexed with primary antibodies. The final concentration of the precomplexed solution was adjusted to 50 μg/mL with binding buffer. […]
# as §1
# [3] = tested on: PG9; assay: Glycan array on aluminium oxide-coated glass (ACG) slide, homo- and mixed glycans, binding of PG9; settings: homogeneous array of glycans I-XI
# Source text: To evaluate whether the ACG array format could enhance the detection sensitivity, the inventors performed a ligand specificity profiling at various concentrations of PG9. […] Previously, it was shown that PG9 required Man5GlcNAc2 at primary (Asn160) and secondary (Asn156 or Asn173) binding sites together with a short peptide strand in gp120 recognition^26, whereas the composition of glycan at Asn156 or Asn173 was defined as a complex-type glycan in later studies^30,31. In the present study, the strong PG9 interaction with the hybrid-type structure compared to both Man5GlcNAc2 and complex-type glycans indicated the presence of a hybrid-type glycan or an oligomannose and a complex-type glycan in close proximity as ligand(s).
# To evaluate the glycan combination at Asn160 and Asn156/Asn173 of gp120 that best fits into the PG9 binding pocket, the inventors printed two different mixed-glycan arrays. […]
# (§2) b) Fabrication of aluminum oxide coated glass slide. The aluminum oxide glass substrate provides advantages for being able to be assessed by both mass spectrometry and fluorescence scanning. […]
# as §1
# [4] = target: PG16; assay: Determination of surface dissociation constants (KD,surf) on ACG slide; format: binding, human
# Source text: (§3) To further understand why glycan binding to these bNAbs was not readily observed on the NHS-coated glass slides, the inventors conducted a specificity test with the ACG array. […] Therefore, the inventors can simply adjust the concentration of glycan to control the density and distance of glycans on the ACG surface. To prepare a representative ACG array, glycans I-XI (FIG. 5a) were linked to a phosphonic acid tail for spontaneous covalent immobilization on the ACG slide (Supplementary Scheme S21, as shown in FIG. 129). After incubation with a secondary antibody, the inventors determined the dissociation constant (KD.surf.)^59 of the glycans interacting with the antibody of interest. […]
# as §2
# The aluminum oxide coated glass slides for the determination of dissociation constants were spotted with 100 and 50 μM concentrations of glycans Man5GlcNAc2 (V), hybrid type (XI), bi-antennary complex type (XII), V+XI (1:1 mole ratio), V+XII, and XI+XII. […] Finally, slides were washed with PBST, spin dried and scanned at 450 nm with a microarray fluorescence chip reader. Scanned images were analyzed with GenePix Pro 6.0 analysis software. […]
# [5] = tested on: PG16; assay: Glycan array on aluminium oxide-coated glass (ACG) slide, homo- and mixed glycans, binding of PG16; settings: 100 μM glycan or mixtures of IV and XI
# Source text: as §3, with “interest. Using the ACG slide, the signal intensity was enhanced, as shown by the use of PG16 at 1 μg/mL on the ACG slide in comparison to 25 μg/mL used on the NHS-coated glass slide (FIG. 5b and Supplementary FIG. 199).” for “interest.”
# as §2, §1
compound,measurement,setting,value
"5-Aminopentyl-di-[5-Acetamido-3,5-dideoxy-D-glycero-α-D-galacto-2-nonulopyrano-sylonate-(2→6)-β-D-galactopyranosyl-(1→4)-2-acetamido-2-deoxy-β-D-glucopyranosyl-(1→2)-α-D-mannopyranosyl]-(1→3),(1→6)-β-D-mannopyranosyl-(1→4)-2-acetamido-2-deoxy-β-D-glucopyranosyl-(1→4)-(α-L-fucopyranosyl-(1→6)-2-acetamido-2-deoxy-β-D-glucopyranoside [glycan 19]",binding of PG16,[1],not affected by the presence of the core fucose
CC(=O)N[C@H]1[C@H](O[C@H]2[C@H](O)[C@@H](NC(C)=O)C(O)O[C@@H]2CO)O[C@H](CO)[C@@H](O[C@@H]2O[C@H](CO[C@H]3O[C@H](CO[C@H]4O[C@H](CO)[C@@H](O)[C@H](O)[C@@H]4O[C@H]4O[C@H](CO)[C@@H](O)[C@H](O)[C@@H]4O)[C@@H](O)[C@H](O[C@H]4O[C@H](CO)[C@@H](O)[C@H](O)[C@@H]4O[C@H]4O[C@H](CO)[C@@H](O)[C@H](O)[C@@H]4O)[C@@H]3O)[C@@H](O)[C@H](O[C@H]3O[C@H](CO)[C@@H](O)[C@H](O)[C@@H]3O[C@H]3O[C@H](CO)[C@@H](O)[C@H](O)[C@@H]3O[C@H]3O[C@H](CO)[C@@H](O)[C@H](O)[C@@H]3O)[C@@H]2O)[C@@H]1O (stereo partly shown) [Man9GlcNAc2],binding of PGTs 141-144,[2],significant decrease in the affinity
CC(=O)NC1C(O)[C@H](O[C@@H]2OC(CO[C@]3(C(=O)O)CC(O)[C@@H](NC(C)=O)C([C@H](O)[C@H](O)CO)O3)[C@H](O)C(O)C2O)C(CO)O[C@H]1OC1C(O)[C@H](O)C(CO)O[C@@H]1OC1C(O)[C@H](O[C@@H]2C(CO)O[C@@H](O[C@@H]3C(CO)O[C@@H](OCCNC(=O)OCCOCCOCCP(=O)(O)O)C(NC(C)=O)C3O)C(NC(C)=O)C2O)OC(CO[C@H]2OC(CO[C@H]3OC(CO)[C@@H](O)C(O)C3O)[C@@H](O)C(O[C@H]3OC(CO)[C@@H](O)C(O)C3O)C2O)[C@H]1O (stereo partly shown) [X],binding of PG9 to single glycans,[3],apparent specificity; also recorded: significant enhancement in binding
same,Kd,[4]; read-out: KD (binding affinity of PG16),935 nM
Man5GlcNAc2,binding of PG16,[1],could not observe binding
same,signal intensities for binding of PG16,[4]; glycans spotted at 100 and 50 μM,too weak to determine the KD
same,binding of PG16,[5],unable to detect PG16 binding
